The results in this text go back to PubChem BioAssay AID256 (DTP/NCI, 2004).

SMILES strings stand for the structures. “And” between values parts separate entries of the source, which are not always exact repeats. Identical values can stand only once. Inconclusive results and toxic doses are left out.

The test system of this experiment is CD2F1 mice, L1210 leukemia ip, survival T/C. In words: NCI In Vivo Anticancer Drug Screen. Data for tumor model L1210 Leukemia (intraperitoneal) in CD2F1 (CDF1) mice. To be noted: endpoint: mean survival time, higher = longer survival. The gist of the method: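 Ratio T/C, where T is the treated-group value and C the vehicle-dosed control value, from mice implanted with a transplantable tumor.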

The mark [1] stands for this setting: dose: 100.0 mg/kg/injection, schedule: Q01DX009 (ip), vehicle: saline with Tween-80.
The mark [2] stands for this setting: dose: 200.0 mg/kg/injection, schedule: Q01DX009 (ip), vehicle: saline with Tween-80.
Setting [3] is: dose: 400.0 mg/kg/injection, schedule: Q01DX009 (ip), vehicle: saline with Tween-80.
The mark [4] stands for this setting: dose: 100.0 mg/kg/injection, schedule: Q01DX001 (ip), vehicle: saline with Tween-80.
The mark [5] stands for this setting: dose: 200.0 mg/kg/injection, schedule: Q01DX001 (ip), vehicle: saline with Tween-80.
Setting [6] is: dose: 400.0 mg/kg/injection, schedule: Q01DX001 (ip), vehicle: saline with Tween-80.
[7] abbreviates: dose: 100.0 mg/kg/injection, schedule: Q04DX003 (ip), vehicle: saline with Tween-80.
The mark [8] stands for this setting: dose: 200.0 mg/kg/injection, schedule: Q04DX003 (ip), vehicle: saline with Tween-80.
Setting [9] is: dose: 400.0 mg/kg/injection, schedule: Q04DX003 (ip), vehicle: saline with Tween-80.
Where [10] appears, read: dose: 100.0 mg/kg/injection, schedule: Q01DX001 (ip), vehicle: Klucel (hydroxypropylcellulose) (HPC).
The mark [11] stands for this setting: dose: 100.0 mg/kg/injection, schedule: Q04DX002 (ip), vehicle: saline with Tween-80.
The mark [12] stands for this setting: dose: 200.0 mg/kg/injection, schedule: Q01DX001 (ip), vehicle: Klucel (hydroxypropylcellulose) (HPC).
[13] abbreviates: dose: 200.0 mg/kg/injection, schedule: Q04DX002 (ip), vehicle: saline with Tween-80.
[14] abbreviates: dose: 100.0 mg/kg/injection, schedule: Q04DX003 (ip), vehicle: saline.
The mark [15] stands for this setting: dose: 200.0 mg/kg/injection, schedule: Q04DX003 (ip), vehicle: saline.

Turning to `NC(N)=Nc1nc(N)nc(N)n1`, the T/C was 104 % of control (dose: 3.13 mg/kg/injection, schedule: Q01DX009 (ip), vehicle: saline with Tween-80); 107 % of control (dose: 6.25 mg/kg/injection, schedule: Q01DX009 (ip), vehicle: saline with Tween-80); 104 % of control and 110 % of control (dose: 12.5 mg/kg/injection, schedule: Q01DX009 (ip), vehicle: saline with Tween-80).

`COC(=O)[C@]1(C)CCC[C@]2(C)c3cc(C(C)=O)c(C(C)C)cc3CC[C@@H]12`: the T/C under setting [1] is 97 % of control, the T/C under setting [2] was 97 % of control and the T/C under setting [3] was 100 % of control.

`Clc1ccc(Oc2ccccc2)cc1`: the T/C by setting is: under setting [4], 96 % of control; under setting [5], 86 % of control; under setting [6], 91 % of control.

For `O=C(NC1CCC(NC(=O)N2CC2)CC1)N1CC1` (stereo not drawn), the T/C reads like this: (dose: 6.75 mg/kg/injection, schedule: Q01DX001 (ip), vehicle: carboxymethylcellulose (CMC)) 164 % of control; (dose: 10.0 mg/kg/injection, schedule: Q01DX001 (ip), vehicle: carboxymethylcellulose (CMC)) 185 % of control; (dose: 15.0 mg/kg/injection, schedule: Q01DX001 (ip), vehicle: carboxymethylcellulose (CMC)) 102 % of control.

As for `O=[N+]([O-])O.O=[N+]([O-])O.[NH-]C(c1ccccc1)C([NH-])c1ccccc1.[Pt+2]` (stereo not drawn), the T/C by setting is: (dose: 6.25 mg/kg/injection, schedule: Q04DX003 (ip), vehicle: saline) 168 % of control; (dose: 12.5 mg/kg/injection, schedule: Q04DX003 (ip), vehicle: saline with Tween-80) 158 % of control; (dose: 12.5 mg/kg/injection, schedule: Q04DX003 (ip), vehicle: saline) 189 % of control; (dose: 25.0 mg/kg/injection, schedule: Q04DX003 (ip), vehicle: saline with Tween-80) 168 % of control; (dose: 25.0 mg/kg/injection, schedule: Q04DX003 (ip), vehicle: saline) 195 % of control.

`O=C(CCBr)c1ccc(Cl)cc1`: where the note is “dose: 100.0 mg/kg/injection, schedule: Q01DX009 (ip), vehicle: saline sonified”, the T/C was 97 % of control.

Turning to `CC(C)c1ccc2cc(C(C)C)ccc2c1`, the T/C was 86 % of control under setting [7], 92 % of control under setting [8] and 92 % of control under setting [9].

As for `Cc1ccc(C(=O)c2ccccc2Cl)cc1`, the T/C is 91 % of control (dose: 15.0 mg/kg/injection, schedule: Q01DX009 (ip), vehicle: Klucel (hydroxypropylcellulose) (HPC)); 87 % of control (dose: 30.0 mg/kg/injection, schedule: Q01DX009 (ip), vehicle: Klucel (hydroxypropylcellulose) (HPC)); 87 % of control (dose: 60.0 mg/kg/injection, schedule: Q01DX009 (ip), vehicle: Klucel (hydroxypropylcellulose) (HPC)).

Turning to `Cc1nc(N)nc2c1CCC(=O)N2C`, the T/C reads like this: (dose: 50.0 mg/kg/injection, schedule: Q04DX002 (ip), vehicle: saline with Tween-80) 97 % of control; under setting [10], 102 % of control; under setting [11], 97 % of control; under setting [12], 90 % of control; under setting [13], 97 % of control.

Take `C[S+](C)C`: the T/C by setting is: (dose: 25.0 mg/kg/injection, schedule: Q01DX009 (ip), vehicle: saline) 101 % of control; (dose: 50.0 mg/kg/injection, schedule: Q01DX009 (ip), vehicle: saline) 100 % of control; (dose: 100.0 mg/kg/injection, schedule: Q01DX009 (ip), vehicle: saline) 104 % of control; under setting [14], 101 % of control; (dose: 200.0 mg/kg/injection, schedule: Q01DX009 (ip), vehicle: saline) 98 % of control; under setting [15], 101 % of control. The T/C is 102 % of control (dose: 400.0 mg/kg/injection, schedule: Q01DX009 (ip), vehicle: saline) and 104 % of control (dose: 400.0 mg/kg/injection, schedule: Q04DX003 (ip), vehicle: saline).

For `Cc1ccc(S(=O)c2ccc(C)cc2)cc1`, the T/C is 101 % of control under setting [10]; 100 % of control under setting [4]; 89 % of control under setting [12]; 103 % of control under setting [5]; 93 % of control (dose: 400.0 mg/kg/injection, schedule: Q01DX001 (ip), vehicle: Klucel (hydroxypropylcellulose) (HPC)); 100 % of control under setting [6].

Take `O=C(O)CCc1nc(-c2cccc(Br)c2)n[nH]1`: the T/C by setting is: under setting [11], 96 % of control; under setting [13], 107 % of control; (dose: 400.0 mg/kg/injection, schedule: Q04DX002 (ip), vehicle: saline with Tween-80) 103 % of control.

Regarding `c1ccc2c[n+](CCc3c[nH]c4ccccc34)ccc2c1`, the T/C runs as follows: (dose: 25.0 mg/kg/injection, schedule: Q04DX002 (ip), vehicle: other) 100 % of control; (dose: 50.0 mg/kg/injection, schedule: Q04DX002 (ip), vehicle: other) 104 % of control.

Regarding `O=C(c1ccc(Cl)cc1)C1CC(Br)C(Br)CC1C(=O)c1ccc(Cl)cc1` (stereo not drawn), the T/C is 96 % of control under setting [1]; 101 % of control under setting [7]; 98 % of control under setting [2]; 98 % of control under setting [8]; 100 % of control under setting [3]; 98 % of control under setting [9].

In the case of `CCOC(=O)C=C1CCN(C)CC1`, the T/C by setting is: (dose: 50.0 mg/kg/injection, schedule: Q04DX003 (ip), vehicle: saline) 94 % of control; under setting [14], 97 % of control; under setting [15], 97 % of control.

As for `COc1cc(CC(=O)NO)cc(OC)c1OC`, the T/C is 88 % of control under setting [11] and 88 % of control under setting [13].

Regarding `Cc1ccc(O)c2ncccc12`, the T/C is, setting by setting: under setting [1], 114 % of control; under setting [2], 97 % of control; under setting [3], 103 % of control.

Regarding `Nc1nc(N)c(-c2ccc(Cl)cc2)c(COc2ccc(C3(CCl)OCCO3)cc2)n1`, the T/C is 94 % of control (dose: 25.0 mg/kg/injection, schedule: Q01DX001 (ip), vehicle: saline with Tween-80); 102 % of control (dose: 50.0 mg/kg/injection, schedule: Q01DX001 (ip), vehicle: saline with Tween-80); 100 % of control under setting [4].

In the case of `Cc1c2ccccc2c(CSCC(N)C(=O)O)c2ccccc12` (stereo not drawn), the T/C under setting [7] was 89 % of control, the T/C under setting [8] was 107 % of control and the T/C under setting [9] was 98 % of control.
